Patent US4472435A, “Benzophenone derivatives useful in treating heart failure” (Hoffman-La Roche Inc., priority 1980, dated 1984)

What was measured:
aldosterone = assay: Aldosterone antagonism in adrenalectomised rats (urine volume, sodium and potassium excretion); format: in vivo, Female Holtzmann rats; details: for Volume (urine volume), in %, based on control animals / [K+] (potassium excretion), in %, based on control animals / [Na+] (sodium excretion), in %, based on control animals: 30 min before aldosterone s.c., adrenalectomised rats, 3 h urine, control = aldosterone only
Method: These aldosterone-antagonistic properties can be dmonstrated in adrenalectomized rats as illustrated hereinafter.
If compounds of formula I are administered to the animals before the treatment with aldosterone, then there is observed, in comparison with the animals which are treated only with aldosterone (control animals), a pronounced increase of the sodium excretion (i.e. the sodium retention caused by aldosterone is antagonised), whereas the potassium excretion and the urine volume are influenced to a lesser extent.
The standard experiment is carried out as follows:
Female Holtzmann rats (150-180 g) are bilaterally adrenalectomised 70 to 74 hours before the beginning of the experiment. After the operation, the animals receive a customary rat dry feed and 0.9% sodium chloride solution for drinking. 16-17 hours before the beginning of the experiment the feed is removed from the animals, but they can subsequently drink, as before, 0.9% sodium chloride solution ad libitum. At the beginning of the experiment the substance to be tested as an aldosterone-antagonist is administered to the animals by means of a stomach probe. 30 minutes later the animals receive a subcutaneous injection of […] of aldosterone. After a further 90 minutes, the urinary bladders of the animals are emptied by careful suprapubic pressure, whereupon the animals are placed individually in metabolic cages without food and without drink. The urine of the animals is then collected for 3 hours, whereupon their urinary bladders are once more emptied. The spontaneously excreted urine and the remaining urine obtained at the conclusion of the experiment by pressing-out the urinary bladders are collected in graduated centrifuge glasses. Sodium and potassium concentrations in the urine are determined with a flame photometer.
(§1) The following Table contains results obtained in the previously described experiment with representative compounds of general formula I. In this Table there are given for each of the compounds figuring therein the dosage administered (in mg/kg p.o.) as well as the percentage variation in the urine volume, the sodium excretion and the potassium excretion in comparison with the control animals (i.e. in comparison with the animals treated only with aldosterone). Moreover, the Table contains data concerning the acute toxicity of the compounds investigated (LD 50 in mg/kg in the case of single oral administration to mice).

[1] = Acute toxicity, single oral administration; details: mouse, in vivo, mice
Description: as §1

[2] = aldosterone in adrenalectomised rats, compared to untreated animals

| SMILES | Volume (urine volume), in %, based on control animals (aldosterone; 0.1 mg/kg p.o.) | [K+] (potassium excretion), in %, based on control animals (aldosterone; 0.1 mg/kg p.o.) | [Na+] (sodium excretion), in %, based on control animals (aldosterone; 0.1 mg/kg p.o.) | LD50 [1] | Volume (urine volume), in %, based on control animals (aldosterone; 1 mg/kg p.o.) | [K+] (potassium excretion), in %, based on control animals (aldosterone; 1 mg/kg p.o.) | [Na+] (sodium excretion), in %, based on control animals (aldosterone; 1 mg/kg p.o.) | other results |
| --- | --- | --- | --- | --- | --- | --- | --- | --- |
| NCC(=O)Nc1ccc([N+](=O)[O-])cc1C(=NO)c1ccccc1 [H, COCH2 NH2, OH, H, NO2, 2-amino-2'-[α-(hydroxyimino)-benzyl]-4'-nitro-acetanilide] | 152% | 97% | 230% | > 5000 mg/kg |  |  |  |  |
| CN(C(=O)CN)c1ccc(N)cc1C(=NO)c1ccccc1Cl [CH3, COCH2 NH2, OH, Cl, NH2, 2,4'-diamino-2'-[o-chloro-α-(hydroxyimino)benzyl]-N-methylacetanilide] |  |  |  | > 5000 mg/kg | 155% | 94% | 254% |  |
| CC(=NO)c1ccc(NC(=O)CN)c(C(=NO)c2ccccc2F)c1 [H, COCH2 NH2, OH, F, drawing 7, 2-amino-2'-[o-fluoro-α-(hydroxyimino)benzyl]-4'-[1-(hydroxyimino)ethyl]acetanilide] |  |  |  | > 5000 mg/kg | 156% | 102% | 327% | Volume (urine volume), in %, based on control animals (aldosterone; 0.01 mg/kg p.o.): 161%; [K+] (potassium excretion), in %, based on control animals (aldosterone; 0.01 mg/kg p.o.): 86%; [Na+] (sodium excretion), in %, based on control animals (aldosterone; 0.01 mg/kg p.o.): 215% |
| NCC(=O)Nc1ccc([N+](=O)[O-])cc1C(=NO)c1ccccc1Cl [H, COCH2 NH2, OH, Cl, NO2, 2-amino-2'-[o-chloro-α-(hydroxyimino)-benzyl]-4'-nitro-acetanilide] | 114% | 99% | 211% | > 5000 mg/kg |  |  |  |  |
| C[C@]12CCC(=O)C=C1CC[C@@H]1[C@@H]2[C@@H](O)C[C@]2(C=O)[C@@H](C(=O)CO)CC[C@@H]12 [aldosterone, reference compound] |  |  |  |  |  |  |  | potassium excretion after aldosterone (in words) (aldosterone; [2]): increased potassium excretion; sodium excretion after aldosterone (in words) (aldosterone; [2]): pronounced reduction of the sodium excretion; urine volume after aldosterone (in words) (aldosterone; [2]): reduction of the excreted urine volume |
